According to ChEMBL document CHEMBL1201862, “PubChem BioAssay data set” (2004):
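Where inhibition never reached the appropriate level, the endpoint shown equals the highest concentration tested. Otherwise, values were interpolated linearly from a five-concentration, 48-hour dose response in 96-well plates. GI50 marks 50% less growth.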 The source made the active and inactive calls. Rule as the data show it: active = GI50 up to about 1.1 µM and inactive = higher.

Legend:
Assay in all cases: NCI anticancer screen, dose series, 48 h
[1] = test system: ACHN
[2] = test system: CCRF-CEM
[3] = test system: HOP-92
[4] = test system: HT-29
[5] = test system: Hs-578T
[6] = test system: KM12
[7] = test system: MCF7
[8] = test system: MDA-MB-231
[9] = test system: Malme-3M
[10] = test system: NCI-H460
[11] = test system: NCI-H522
[12] = test system: OVCAR-3
[13] = test system: OVCAR-4
[14] = test system: SF-268
[15] = test system: SF-539
[16] = test system: SK-MEL-28
[17] = test system: SK-MEL-5
[18] = test system: SR
[19] = test system: U-251
[20] = test system: DU-145

Structure (SMILES) | GI50 [1] | GI50 [2] | GI50 [3] | GI50 [4] | GI50 [5] | GI50 [6] | GI50 [7] | GI50 [8] | GI50 [9] | GI50 [10] | GI50 [11] | GI50 [12] | GI50 [13] | GI50 [14] | GI50 [15] | GI50 [16] | GI50 [17] | GI50 [18] | GI50 [19] | GI50 [20]
Cc1cc(Cl)ccc1NC(=O)/C(Cc1nc2ccc(C(=O)c3ccccc3)cc2nc1O)=N/NC(=O)c1ccncc1 | > 100 µM (inactive) | > 100 µM (inactive) | > 100 µM (inactive) | > 100 µM (inactive) | > 100 µM (inactive) | 39.1 µM (inactive) | > 100 µM (inactive) | > 100 µM (inactive) | > 100 µM (inactive) | > 100 µM (inactive) | > 100 µM (inactive) | > 100 µM (inactive) | > 100 µM (inactive) | > 100 µM (inactive) | > 100 µM (inactive) | > 100 µM (inactive) | 92 µM (inactive) | 21.7 µM (inactive) | > 100 µM (inactive) | –
C=C1C[C@H]2C=Nc3cc(OCCCOc4cc5c(cc4OC)C(=O)N4CC(=C)C[C@H]4C=N5)c(OC)cc3C(=O)N2C1 [SJG-136] | < 0.01 µM (active) | < 0.01 µM (active) | 0.00682 µM (active) | 0.0147 µM (active) | 0.0426 µM (active) | 0.0124 µM (active) | 0.012 µM (active) | < 0.0108 µM (active) | 0.0109 µM (active) | < 0.01 µM (active) | 0.0014 µM (active) | 0.0172 µM (active) | 0.0306 µM (active) | 0.000832 µM (active) | < 0.01 µM (active) | 0.0141 µM (active) | < 0.01 µM (active) | < 0.01 µM (active) | < 0.01 µM (active) | –
O=C1NC(N2CCOCC2)=N/C1=C\c1ccccc1O | > 100 µM (inactive) | > 100 µM (inactive) | > 100 µM (inactive) | > 100 µM (inactive) | > 100 µM (inactive) | > 100 µM (inactive) | > 100 µM (inactive) | > 100 µM (inactive) | > 100 µM (inactive) | – | > 100 µM (inactive) | > 100 µM (inactive) | > 100 µM (inactive) | > 100 µM (inactive) | > 100 µM (inactive) | > 100 µM (inactive) | > 100 µM (inactive) | – | > 100 µM (inactive) | > 100 µM (inactive)
N#Cc1c(-c2ccccc2)cc(Nc2cccc(C(F)(F)F)c2)n2c1nc1ccccc12 | 1.88 µM (inactive) | – | 0.206 µM (active) | 1.16 µM (inactive) | – | 2.17 µM (inactive) | – | 1.71 µM (inactive) | 1.27 µM (inactive) | 0.766 µM (active) | 0.245 µM (active) | 0.561 µM (active) | 0.912 µM (active) | 1.29 µM (inactive) | 2.22 µM (inactive) | 9.12 µM (inactive) | 0.548 µM (active) | – | 0.611 µM (active) | 4.04 µM (inactive)
C=C(c1ccccc1)[C@@]1(O)CCCC[C@H]1NC(c1ccccc1)c1ccccc1 | 11.7 µM (inactive) | 4.34 µM (inactive) | 12.6 µM (inactive) | 11.7 µM (inactive) | – | 11.1 µM (inactive) | – | – | 16.1 µM (inactive) | 13 µM (inactive) | 8.85 µM (inactive) | 12.1 µM (inactive) | 14.1 µM (inactive) | 13.6 µM (inactive) | 15.9 µM (inactive) | 15.5 µM (inactive) | 9.51 µM (inactive) | 1.7 µM (inactive) | 10.7 µM (inactive) | –
CC(=O)c1cccc(NC(=O)/C(=N\NC(=S)NN)C2C(=O)Nc3ccccc3[S+]2[O-])c1 (stereo unspecified) | > 100 µM (inactive) | > 100 µM (inactive) | 83.8 µM (inactive) | > 100 µM (inactive) | > 100 µM (inactive) | > 100 µM (inactive) | > 100 µM (inactive) | > 100 µM (inactive) | > 100 µM (inactive) | – | > 100 µM (inactive) | > 100 µM (inactive) | – | > 100 µM (inactive) | > 100 µM (inactive) | > 100 µM (inactive) | > 100 µM (inactive) | > 100 µM (inactive) | > 100 µM (inactive) | –
CC1(Cc2cc3c(cc2C2(c4ccc([N+](=O)[O-])cc4)OCCO2)OCO3)OCCO1 | 93.3 µM (inactive) | 49.3 µM (inactive) | – | > 100 µM (inactive) | 71.1 µM (inactive) | 72.3 µM (inactive) | 51.8 µM (inactive) | 52.6 µM (inactive) | > 100 µM (inactive) | 59.8 µM (inactive) | 24.7 µM (inactive) | 69.2 µM (inactive) | 50.2 µM (inactive) | > 100 µM (inactive) | > 100 µM (inactive) | > 100 µM (inactive) | 41.7 µM (inactive) | – | 71.3 µM (inactive) | > 100 µM (inactive)
CC(=O)CCC1(C(=O)OCC(C)C)CCCC1=O (stereo unspecified) | > 100 µM (inactive) | > 100 µM (inactive) | 90.6 µM (inactive) | > 100 µM (inactive) | > 100 µM (inactive) | > 100 µM (inactive) | – | > 100 µM (inactive) | > 100 µM (inactive) | > 100 µM (inactive) | > 100 µM (inactive) | 63.4 µM (inactive) | > 100 µM (inactive) | > 100 µM (inactive) | > 100 µM (inactive) | > 100 µM (inactive) | > 100 µM (inactive) | – | > 100 µM (inactive) | > 100 µM (inactive)
